Assay [1] in a line: Inhibition of FAS2 in Staphylococcus aureus assessed as inhibition of fatty acid synthesis by scintillation counting.
The subject of assay [2] is Enterococcus faecalis. Put plainly: Antibacterial activity against Enterococcus faecalis CL8516. The class given is functional.
The nature of assay [3]: Inhibition of FabH in Staphylococcus aureus assessed as inhibition of fatty acid synthesis.
For assay [4], the system named is Staphylococcus aureus. Put plainly: Antibacterial activity against Staphylococcus aureus assessed as minimum concentration required to differential zone of clearance between antisense plate compared to control. The class given is functional.
Assay [5] concerns Staphylococcus aureus. In words: Antibacterial activity against Staphylococcus aureus Smith. The class given is functional.
Assay [6] concerns Streptococcus pneumoniae. Put plainly: Antibacterial activity against Streptococcus pneumoniae CL2883. The class given is functional.
For assay [7], the system named is Staphylococcus aureus. Put plainly: Antibacterial activity against Staphylococcus aureus Smith at 64 ug/mL. The class given is functional, organism-based.
Assay [8] has as its system Enterococcus faecalis. In words: Antibacterial activity against Enterococcus faecalis CL8516 at 64 ug/mL. The class given is functional, organism-based.
Assay [9] deals with Streptococcus pneumoniae. Put plainly: Antibacterial activity against Streptococcus pneumoniae CL2883 at 64 ug/mL. The class given is functional, organism-based.
Assay [10] has as its system Staphylococcus aureus. In words: Inhibition of FAS2 in Staphylococcus aureus assessed as inhibition of fatty acid synthesis at 167 ug/ml.
The nature of assay [11]: Inhibition of Escherichia coli FabF C163F.

pIC50: −log10 of the molar value. In brackets after ≈: the same amount, converted by molar mass. Activity calls are given as the source filed them. No cut-off for these calls is given here.

Usually IC50 stands for the concentration at which inhibition is half-maximal. Turning to `CC12C[C@@]34C=CC(=O)[C@@](C)(CCC(=O)Nc5c(O)ccc(C(=O)O)c5O)C3[C@H](CC1C4)O2` (stereo partly drawn) [PLATENSIMYCIN], in [1], the IC50 turned out to be 0.5 µg/mL (≈ 1.13 µM).
As usually defined, the MIC is the least concentration at which growth counts as inhibited. Read a low MIC as inhibition by little substance. For the compound `C=C1C[C@@]23C=CC(=O)[C@@](C)(CCC(=O)Nc4c(O)ccc(C(=O)O)c4O)C2C[C@@H]1C[C@H]3O` (stereo partly drawn), the MIC was 8 µg/mL (≈ 18.1 µM) with Enterococcus faecalis [2], 32 µg/mL (≈ 72.5 µM) in the assay on Staphylococcus aureus [5] and above 64 µg/mL in the assay with Streptococcus pneumoniae [6]. Besides, the figures for the IC50 in [3] and in assay [1] were 15 µg/mL (≈ 34 µM) and 7.12 µg/mL (≈ 16.1 µM), respectively. Also, the Activity in the assay on Staphylococcus aureus [4] worked out at 20 µg/mL.
Turning to `C=C1C[C@@]23C=CC(=O)[C@@](C)(CCC(=O)OC)C2C[C@@H]1C[C@H]3O` (stereo partly drawn), the result with Staphylococcus aureus [7], in the assay with Enterococcus faecalis [8], with Streptococcus pneumoniae [9] and in the assay on Staphylococcus aureus [10] was inactive.
Regarding `C=C1C[C@@]23C=CC(=O)[C@@](C)(CCC(=O)Nc4c(O)ccc(C(=O)OC)c4O)C2C[C@@H]1C[C@H]3O` (stereo partly drawn), the result with Staphylococcus aureus [7], with Enterococcus faecalis [8], with Streptococcus pneumoniae [9] and in the assay with Staphylococcus aureus [10] was inactive.
A word on the pIC50: it is the negative decadic logarithm of the IC50, by convention in mol/L. A low value points to a large IC50. For `C=C1C[C@@]23C=CC(=O)[C@@](C)(CCC(=O)Nc4c(O)ccc(C(=O)O)c4O)[C@@H]2C[C@@H]1CC3` [PLATENCIN], the IC50 in assay [1] was determined as 12 µg/mL (≈ 28.2 µM). Besides, the Activity in the assay with Staphylococcus aureus [4] turned out to be 0.2 µg/mL. In assay [11], the pIC50 was 6.95.

The values are drawn from ChEMBL document CHEMBL1153069, “Isolation, enzyme-bound structure and antibacterial activity of platencin A1 from Streptomyces platensis” (Bioorg Med Chem Lett, 2009).
